Data taken from patent US20250388605A1, “HETEROBIFUNCTIONAL COMPOUNDS AND METHODS OF TREATING DISEASE” (Halda Therapeutics OpCo, Inc., priority 2022, published 2025).

Legend:
BRD4-BD2 = molecular target: T1, BRD4-BD2 (Homo sapiens, UniProt O60885); assay: Binding affinity to BRD4-BD2 (bromoKdELECT assay); details: 11-point 3-fold dilution series
T1 construct: made in house; host or cells: T7 phage grown in an E. coli host derived from the BL21 strain

VCaP cells = assay: Cellular growth inhibition assay for VCaP cells, CellTiter-Glo; type: cell-based, human; details: 72 hours
Procedure, shortened: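 GI50 values come from four-parameter curve fits of luminescence data normalized to a zero baseline. Compound, in medium with 0.5% DMSO, was added one day after plating and left for 72 h before CellTiter-Glo 2.0 addition.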

BRD4-BD1 = molecular target: T2, BRD4-BD1 (Homo sapiens, UniProt O60885); assay: Binding affinity to BRD4-BD1 (bromoKdELECT assay); details: 11-point 3-fold dilution series
T2 construct: made in house; host or cells: T7 phage grown in an E. coli host derived from the BL21 strain

SMILES	Kd (BRD4-BD2) [nM]	GI50 (VCaP cells; Homo sapiens) [nM]	Kd (BRD4-BD1) [nM]	GI50 (VCaP cells) [nM]
CCS(=O)(=O)Nc1ccc(Oc2cccc(OCCOCCOCCOCCOCCN(C)c3ncc(C(=O)N[C@H]4C(C)(C)[C@H](Oc5ccc(C#N)c(Cl)c5)C4(C)C)cn3)c2)c(-c2cn(C)c(=O)c3[nH]ccc23)c1 [Compound I-3]	< 50	< 500	< 50	
CCS(=O)(=O)Nc1ccc(Oc2cccc(N3CCN(C4CN(c5ncc(C(=O)N[C@H]6C(C)(C)[C@H](Oc7ccc(C#N)c(Cl)c7)C6(C)C)cn5)C4)CC3)c2)c(-c2cn(C)c(=O)c3[nH]ccc23)c1 [Compound I-126]	< 50	< 500	50 to 500	
Cn1cc(-c2cc(C(C)(C)O)ccc2Oc2ccc(N3CC(CN4CC5CC4CN5c4ncc(C(=O)N[C@H]5C(C)(C)[C@H](Oc6ccc(C#N)c(Cl)c6)C5(C)C)cn4)C3)cc2)c2cc[nH]c2c1=O (stereo partly drawn) [Compound I-228]	< 50	< 500	< 50	
CN(c1ccc(Oc2cccc(N3CC(N4CCN(c5ncc(C(=O)N[C@H]6C(C)(C)[C@H](Oc7ccc(C#N)c(Cl)c7)C6(C)C)cn5)CC4)C3)c2F)c(-c2cn(C)c(=O)c3[nH]ccc23)c1)S(=O)(=O)C1CC1 [Compound I-91]	< 50	< 500	50 to 500	
CCS(=O)(=O)Nc1ccc(Oc2cccc(N(C)C3CN(CC4CCN(c5ncc(C(=O)NC6C(C)(C)C(Oc7ccc(C#N)c(Cl)c7)C6(C)C)cn5)CC4)C3)c2)c(-c2cn(C)c(=O)c3[nH]ccc23)c1 (stereo not drawn) [Compound I-39]	< 50	< 500	< 50	
Cn1cc(-c2cc(C(C)(C)O)ccc2Oc2cccc(OCCOC3CCN(c4ncc(C(=O)N[C@H]5C(C)(C)[C@H](Oc6ccc(C#N)c(Cl)c6)C5(C)C)cn4)CC3)c2)c2cc[nH]c2c1=O [Compound I-56, N-((1r, 3r)-3-(3-chloro-4-cyanophenoxy)-2,2,4,4-tetramethylcyclobutyl)-2-(4-(2-(3-(4-(2-hydroxypropan-2-yl)-2-(6-methyl-7-oxo-6,7-dihydro-1H-pyrrolo[2,3-c]pyridin-4-yl)phenoxy)phenoxy)ethoxy)piperidin-1-yl)pyrimidine-5-carboxamide]	50 to 500	< 500	500 to 2500	
CCS(=O)(=O)Nc1ccc(Oc2cccc(OCCOC3CCN(c4ncc(C(=O)N[C@H]5C(C)(C)[C@H](Oc6ccc(C#N)c(Cl)c6)C5(C)C)cn4)CC3)c2)c(-c2cn(C)c(=O)c3[nH]ccc23)c1 [Compound I-6]	50 to 500	< 500	> 2500	
CCS(=O)(=O)Nc1ccc(Oc2cccc(OCCOC3CCN(c4ccc(C(=O)N[C@H]5C(C)(C)[C@H](Oc6ccc(C#N)c(Cl)c6)C5(C)C)nn4)CC3)c2)c(-c2cn(C)c(=O)c3[nH]ccc23)c1 [Compound I-11]	< 50	< 500	50 to 500	
Cn1cc(-c2ccccc2Oc2cccc(OCCOC3CCN(c4ncc(C(=O)N[C@H]5C(C)(C)[C@H](Oc6ccc(C#N)c(Cl)c6)C5(C)C)cn4)CC3)c2)c2ccn(C)c2c1=O [Compound I-137]	> 2500	> 3000	> 2500	
Cn1cc(-c2cc(C(C)(C)O)ccc2Oc2cccc(N3CC(N4CCN(c5ncc(C(=O)N[C@H]6C(C)(C)[C@H](Oc7ccc(C#N)c(Cl)c7)C6(C)C)cn5)CC4)C3)c2)c2cc[nH]c2c1=O [Compound I-105]	< 50	< 500	500 to 2500	
Cn1cc(-c2cc(C(C)(C)O)ccc2Oc2cccc(CCOC3CCN(c4ncc(C(=O)N[C@H]5C(C)(C)[C@H](Oc6ccc(C#N)c(Cl)c6)C5(C)C)cn4)CC3)c2F)c2cc[nH]c2c1=O [Compound I-147]	< 50		> 2500	< 500
